Holding throughout (type): cell-based
The target in one assay is T1, CaV2.2 (Homo sapiens, UniProt Q00975).
T1 construct: expressed in transfected cells; host or cells: HEK293
As to the kind of experiment: VIPR optical membrane potential assay with electrical stimulation, CaV2.2. Particulars: Table 9, CaV 2.2 receptors. The procedure, abridged: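 HEK293 cells stably expressing CaV2.2 stained with CC2-DMPE/DiSBAC2(3) voltage-sensitive dyes (10 μM final CC2-DMPE, 30 min, RT), then compound added and cells electrically stimulated for 3-5 s. Read-out: background-subtracted 460/580 nm emission ratio; response R=Rf/Ri (post- vs pre-stimulus ratio); antagonism seen as reduced response.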

The next assay has as its target T2, NaV1.3 (Homo sapiens, UniProt Q9NY46).
T2 construct: expressed in transfected cells; host or cells: HEK293
Nature of the assay: VIPR optical membrane potential assay with electrical stimulation, NaV1.3. The note with it: Table 9, NaV 1.3 receptors. In short, it runs like this:
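HEK293 cells stably expressing NaV1.3, stained with CC2-DMPE (10 μM final) then DiSBAC2(3) with ABSC1, 30 min each at RT; compounds added with oxonol. Electrical stimulation for 3 s; 460/580 nm background-subtracted emission ratio Rf/Ri, normalised to tetracaine (positive) and untreated (negative) controls.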

The next assay concerns the target NaV1.8 (Homo sapiens, UniProt Q9Y5Y9). Nature of the assay: VIPR optical membrane potential assay, NaV1.8 (other subtypes in an analogous mode). The note with it: Table 9, NaV 1.8 receptors. On the procedure: Antagonist properties of test compounds were assessed as follows. Cells expressing the NaV of interest were placed into microtiter plates. After an incubation period, the cells were stained with fluorescent dyes sensitive to the transmembrane potential. The test compounds were added to the microtiter plate. The cells were stimulated with either chemical or electrical means to evoke a NaV dependent membrane potential change from unblocked channels, which was detected and measured with trans-membrane potential-sensitive dyes. Antagonists were detected as a decreased membrane potential response to the stimulus.
24 hours before the assay on VIPR, CHO cells endogenously expressing a NaV 1.2 type voltage-gated NaV are seeded in 96-well poly-lysine coated plates at 60,000 cells per well. […] Plates are incubated in the dark for 30 minutes at room temperature. • 4) While the cells are being stained with coumarin, a […] oxonol solution in BS#2 is prepared. […] As before, the residual volume should be 40 μL. • 6) Upon removing the bath, the cells are loaded with 80 μL of the DiSBAC2(3) solution, after which test compound, dissolved in DMSO, is added to achieve the desired test concentration to each well from the drug addition plate and mixed thoroughly. The volume in the well should be roughly 121 μL. The cells are then incubated for 20-30 minutes. • 7) Once the incubation is complete, the cells are ready to be assayed on VIPR® with a sodium addback protocol. 120 μL of Bath solution #1 is added to stimulate the NaV dependent depolarization. […] tetracaine was used as an antagonist positive control for block of the NaV channel. Analysis of VIPR® Data:
The following is an example of how NaV1.3 inhibition activity is measured using the optical membrane potential method#2. Other subtypes are performed in an analogous mode in a cell line expressing the NaV of interest.

T2 sequence (Q9NY46 whole entry): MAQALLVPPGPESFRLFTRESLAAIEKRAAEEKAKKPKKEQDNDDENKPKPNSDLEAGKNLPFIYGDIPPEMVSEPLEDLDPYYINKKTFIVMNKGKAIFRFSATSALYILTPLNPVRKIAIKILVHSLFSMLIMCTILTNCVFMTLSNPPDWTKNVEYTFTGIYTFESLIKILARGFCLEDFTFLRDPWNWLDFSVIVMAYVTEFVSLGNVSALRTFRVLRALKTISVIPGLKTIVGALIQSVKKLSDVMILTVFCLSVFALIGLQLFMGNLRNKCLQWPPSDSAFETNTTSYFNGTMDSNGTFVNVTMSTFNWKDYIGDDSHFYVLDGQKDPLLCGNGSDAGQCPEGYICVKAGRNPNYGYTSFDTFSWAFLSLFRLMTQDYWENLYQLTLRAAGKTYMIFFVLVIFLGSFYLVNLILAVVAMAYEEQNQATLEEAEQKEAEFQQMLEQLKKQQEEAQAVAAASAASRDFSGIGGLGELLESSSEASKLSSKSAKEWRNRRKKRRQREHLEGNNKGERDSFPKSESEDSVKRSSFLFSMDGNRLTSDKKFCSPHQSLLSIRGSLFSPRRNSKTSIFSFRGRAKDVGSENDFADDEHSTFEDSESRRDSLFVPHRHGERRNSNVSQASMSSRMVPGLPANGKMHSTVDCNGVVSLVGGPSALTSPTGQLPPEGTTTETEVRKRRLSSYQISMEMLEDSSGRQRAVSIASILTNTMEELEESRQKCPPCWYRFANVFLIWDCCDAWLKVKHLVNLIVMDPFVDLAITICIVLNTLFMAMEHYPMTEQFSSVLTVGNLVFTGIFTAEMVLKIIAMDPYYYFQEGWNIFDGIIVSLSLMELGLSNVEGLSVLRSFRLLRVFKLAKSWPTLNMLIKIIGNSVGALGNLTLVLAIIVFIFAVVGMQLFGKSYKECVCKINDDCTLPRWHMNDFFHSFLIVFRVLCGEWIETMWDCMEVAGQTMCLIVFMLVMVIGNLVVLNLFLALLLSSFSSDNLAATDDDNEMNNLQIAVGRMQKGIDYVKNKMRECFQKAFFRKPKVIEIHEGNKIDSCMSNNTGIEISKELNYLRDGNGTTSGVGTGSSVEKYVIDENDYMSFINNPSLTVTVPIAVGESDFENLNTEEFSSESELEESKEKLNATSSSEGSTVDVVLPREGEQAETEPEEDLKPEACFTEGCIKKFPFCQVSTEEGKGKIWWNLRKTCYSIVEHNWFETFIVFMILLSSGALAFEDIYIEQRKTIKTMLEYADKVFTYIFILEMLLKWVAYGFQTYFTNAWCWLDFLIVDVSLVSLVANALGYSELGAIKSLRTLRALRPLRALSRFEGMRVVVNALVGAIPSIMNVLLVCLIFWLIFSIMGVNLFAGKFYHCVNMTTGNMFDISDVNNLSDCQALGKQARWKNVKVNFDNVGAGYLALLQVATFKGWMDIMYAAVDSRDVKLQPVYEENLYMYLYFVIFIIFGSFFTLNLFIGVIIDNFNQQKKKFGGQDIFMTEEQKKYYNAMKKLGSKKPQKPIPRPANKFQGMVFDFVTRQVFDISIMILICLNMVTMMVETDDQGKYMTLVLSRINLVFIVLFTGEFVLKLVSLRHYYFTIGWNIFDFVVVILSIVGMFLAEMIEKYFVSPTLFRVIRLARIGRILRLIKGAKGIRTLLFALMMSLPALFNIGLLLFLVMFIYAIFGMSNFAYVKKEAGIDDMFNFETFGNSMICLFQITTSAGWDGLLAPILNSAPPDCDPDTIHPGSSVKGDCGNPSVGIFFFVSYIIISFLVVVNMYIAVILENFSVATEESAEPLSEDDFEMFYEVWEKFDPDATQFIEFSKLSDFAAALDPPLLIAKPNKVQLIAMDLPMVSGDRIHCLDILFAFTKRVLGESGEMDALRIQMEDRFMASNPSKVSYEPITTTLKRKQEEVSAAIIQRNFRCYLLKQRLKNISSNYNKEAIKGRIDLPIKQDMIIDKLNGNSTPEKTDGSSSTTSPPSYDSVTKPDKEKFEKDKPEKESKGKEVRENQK
Chain of NaV1.8 (Q9Y5Y9 whole entry): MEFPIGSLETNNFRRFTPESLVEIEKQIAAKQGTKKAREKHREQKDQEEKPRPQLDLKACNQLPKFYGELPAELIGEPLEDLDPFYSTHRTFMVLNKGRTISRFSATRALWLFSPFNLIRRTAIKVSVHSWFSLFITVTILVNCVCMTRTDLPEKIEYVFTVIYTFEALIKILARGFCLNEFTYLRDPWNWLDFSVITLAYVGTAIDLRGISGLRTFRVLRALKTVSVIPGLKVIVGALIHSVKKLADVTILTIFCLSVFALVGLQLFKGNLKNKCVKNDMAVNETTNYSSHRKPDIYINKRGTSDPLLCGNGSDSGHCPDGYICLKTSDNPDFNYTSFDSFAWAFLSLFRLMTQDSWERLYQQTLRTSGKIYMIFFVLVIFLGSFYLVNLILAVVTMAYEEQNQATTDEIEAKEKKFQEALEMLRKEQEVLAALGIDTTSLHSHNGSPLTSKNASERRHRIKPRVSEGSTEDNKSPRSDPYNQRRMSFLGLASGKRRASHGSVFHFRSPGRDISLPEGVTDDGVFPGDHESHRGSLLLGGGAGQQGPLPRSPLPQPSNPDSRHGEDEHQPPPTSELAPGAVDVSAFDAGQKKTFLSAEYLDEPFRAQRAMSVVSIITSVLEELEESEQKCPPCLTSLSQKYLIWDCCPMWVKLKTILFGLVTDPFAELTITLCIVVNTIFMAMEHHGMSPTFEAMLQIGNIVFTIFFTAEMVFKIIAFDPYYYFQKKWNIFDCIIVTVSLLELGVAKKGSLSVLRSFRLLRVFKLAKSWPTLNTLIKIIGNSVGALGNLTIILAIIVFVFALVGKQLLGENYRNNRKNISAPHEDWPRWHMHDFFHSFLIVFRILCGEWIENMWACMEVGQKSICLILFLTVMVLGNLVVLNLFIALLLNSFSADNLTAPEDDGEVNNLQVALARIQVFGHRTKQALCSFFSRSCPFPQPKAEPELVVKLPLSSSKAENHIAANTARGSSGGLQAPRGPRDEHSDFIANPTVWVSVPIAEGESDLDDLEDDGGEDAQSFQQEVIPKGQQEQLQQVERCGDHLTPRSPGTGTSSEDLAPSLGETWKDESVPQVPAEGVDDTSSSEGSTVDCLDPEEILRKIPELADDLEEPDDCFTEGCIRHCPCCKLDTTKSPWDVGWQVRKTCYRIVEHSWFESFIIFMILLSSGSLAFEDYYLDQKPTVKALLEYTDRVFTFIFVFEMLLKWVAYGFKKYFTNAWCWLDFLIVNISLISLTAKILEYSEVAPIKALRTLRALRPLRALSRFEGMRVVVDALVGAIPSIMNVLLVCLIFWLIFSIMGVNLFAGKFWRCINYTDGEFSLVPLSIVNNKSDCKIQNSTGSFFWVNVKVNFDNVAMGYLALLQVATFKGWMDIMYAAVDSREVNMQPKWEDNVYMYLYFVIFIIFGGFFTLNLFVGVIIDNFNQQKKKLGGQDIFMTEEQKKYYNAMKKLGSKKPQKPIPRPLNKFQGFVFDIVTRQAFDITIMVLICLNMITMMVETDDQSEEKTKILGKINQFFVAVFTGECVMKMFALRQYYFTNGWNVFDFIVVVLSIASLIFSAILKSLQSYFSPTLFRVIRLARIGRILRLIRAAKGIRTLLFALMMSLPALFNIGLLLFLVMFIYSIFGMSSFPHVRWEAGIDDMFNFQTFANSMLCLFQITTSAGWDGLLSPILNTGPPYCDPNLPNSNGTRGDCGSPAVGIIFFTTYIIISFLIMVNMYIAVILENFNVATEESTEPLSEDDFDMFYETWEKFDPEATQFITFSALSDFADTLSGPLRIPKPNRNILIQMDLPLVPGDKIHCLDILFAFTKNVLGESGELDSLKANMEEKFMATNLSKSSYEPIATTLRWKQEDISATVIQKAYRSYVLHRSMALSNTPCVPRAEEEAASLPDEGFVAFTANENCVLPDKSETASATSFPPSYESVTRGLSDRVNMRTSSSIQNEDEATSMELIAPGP

For the compound `COc1cccc(N(C(=O)c2cnc(N3CCCCC3)nc2-c2ccccc2F)C(C)C)c1` [compound 133], the IC50 (commonly the concentration needed to halve the response being measured) at CaV2.2 is 2 to 10 µM; against NaV1.3, 2 to 10 µM; against NaV1.8, more than 10 µM.

As to `CC(C)N(C(=O)c1cnc(N2CCCCC2)nc1-c1ccccc1F)c1cccc([N+](=O)[O-])c1` [compound 140], the IC50 against CaV2.2 was 2 to 10 µM; against NaV1.3 it was 2 to 10 µM; against NaV1.8, more than 10 µM.

As to `CN1CCN(c2ncc(C(=O)N(Cc3ccc(C(F)(F)F)cc3)C3CC3)c(-c3ccccc3F)n2)CC1` [compound 126], the IC50 at CaV2.2 is 2 to 10 µM; against NaV1.3, more than 10 µM; on NaV1.8, more than 10 µM.

Regarding `O=C(c1cnc(N2CCCCC2)nc1-c1ccccc1Cl)N(Cc1ccc2c(c1)CCO2)C1CC1` [compound 7], the IC50 is 2 to 10 µM at CaV2.2, 2 to 10 µM at NaV1.3 and more than 10 µM against NaV1.8.

As to `CC(C)N(Cc1ccccc1)C(=O)c1cnc(Nc2ccc(Cl)cc2)nc1-c1ccccc1F` [compound 207], the IC50 against CaV2.2, at NaV1.3 and against NaV1.8 was more than 10 µM in each case.

Consider `O=C(c1cnc(N2CCSCC2)nc1-c1ccccc1F)N(Cc1ccccc1)C1CC1` [compound 109], for which the IC50 against CaV2.2 was 2 to 10 µM; at NaV1.3 it was 2 to 10 µM; at NaV1.8, more than 10 µM.

Turning to `CC(C)Oc1ccc(-c2nc(N3CCOCC3)ncc2C(=O)N(Cc2ccccc2)C(C)C)cc1` [compound 170], the IC50 against CaV2.2, on NaV1.3 and against NaV1.8 was more than 10 µM throughout.

Take `O=C(NC1CCC1)c1cnc(N2CCOCC2)nc1-c1ccccc1F` [compound 174]: the IC50 at CaV2.2, against NaV1.3 and at NaV1.8 was more than 10 µM in each case.

Regarding `O=C(NCCCc1ccccc1)c1cnc(N2CCOCC2)nc1-c1ccc(Oc2ccccc2)cc1` [compound 46], the IC50 against CaV2.2, against NaV1.3 and against NaV1.8 was more than 10 µM in each case.

As to `CC(C)N(C(=O)c1cnc(N2CCCCC2)nc1-c1ccccc1Cl)c1cccc(C(C)(C)C)c1` [compound 3], the IC50 at CaV2.2 was more than 10 µM; at NaV1.3, 2 to 10 µM; on NaV1.8 it was more than 10 µM.

Turning to `COc1cccc(CN(C(=O)c2cnc(N3CCOCC3)nc2-c2ccccc2F)C(C)C)c1` [compound 74], the IC50 against CaV2.2 is 2 to 10 µM; against NaV1.3 it was 2 to 10 µM; against NaV1.8 it was more than 10 µM.

Consider `O=C(NC1CCCCC1)c1cnc(N2CCOCC2)nc1-c1ccccc1F` [compound 196], for which the IC50 against CaV2.2, against NaV1.3 and against NaV1.8 was more than 10 µM each time.

Take `O=C(c1cnc(N2CCCCC2)nc1-c1ccccc1F)N(Cc1ccc2c(c1)CCO2)C1CC1` [compound 77]: the IC50 against CaV2.2 is 2 to 10 µM; at NaV1.3, 2 to 10 µM; at NaV1.8, more than 10 µM.

For `COc1cccc(Nc2ncc(C(=O)N(Cc3ccccc3)C(C)C)c(-c3ccccc3F)n2)c1` [compound 15], the IC50 against CaV2.2, against NaV1.3 and against NaV1.8 was more than 10 µM each time.

In the case of `CC(C)(C)c1ccc(CN(C(=O)c2cnc(N3CCOCC3)nc2-c2ccccc2F)C2CC2)cc1` [compound 161], the IC50 on CaV2.2, against NaV1.3 and on NaV1.8 was 2 to 10 µM in each case.

For the compound `CC1COc2ccccc2N1C(=O)c1cnc(N2CCOCC2)nc1-c1ccccc1F` (stereo not drawn) [compound 84], the IC50 against CaV2.2, at NaV1.3 and against NaV1.8 was more than 10 µM in each case.

On to `COc1cccc(N(C(=O)c2cnc(N3CCCCC3)nc2-c2ccccc2Cl)C2CC2)c1` [compound 58], for which the IC50 against CaV2.2, against NaV1.3 and on NaV1.8 was more than 10 µM in each case.

As to `CC(C)N(Cc1ccccc1)C(=O)c1cnc(NCc2cccc3ccccc23)nc1-c1ccccc1F` [compound 135], the IC50 against CaV2.2 was 2 to 10 µM; at NaV1.3 it was more than 10 µM; at NaV1.8, more than 10 µM.

`CC(C)N(C(=O)c1cnc(N2CCOCC2)nc1-c1ccccc1F)c1cccc(C(C)(C)C)c1` [compound 165]: the values for the IC50 on CaV2.2, on NaV1.3 and against NaV1.8 were more than 10 µM, 2 to 10 µM and more than 10 µM, respectively.

As to `COc1cccc(N(C(=O)c2cnc(N3CCC4CCCCC4C3)nc2-c2ccccc2F)C2CCC2)c1` (stereo not drawn) [compound 65], the IC50 is 2 to 10 µM on CaV2.2, more than 10 µM against NaV1.3 and more than 10 µM at NaV1.8.

`CN1CCN(c2ncc(C(=O)N(Cc3ccncc3)C3CC3)c(-c3ccccc3F)n2)CC1` [compound 18]: the concentration for half-maximal inhibition (IC50) at CaV2.2, on NaV1.3 and at NaV1.8 was more than 10 µM in each case.

`N=C(N)NCCCNC(=O)c1cnc(N2CCC3CCCCC3C2)nc1-c1ccccc1F` (stereo not drawn) [compound 102]: the IC50 against CaV2.2, on NaV1.3 and on NaV1.8 was more than 10 µM in each case.

For `COc1cccc(N(C(=O)c2c(C)nc(N3CCOCC3)nc2-c2ccccc2F)C(C)C)c1` [compound 21], the IC50 on CaV2.2, against NaV1.3 and against NaV1.8 was more than 10 µM in each case.

On to `CC(C)N(Cc1ccc2c(c1)OCO2)C(=O)c1cnc(N2CCCCC2)nc1-c1ccccc1Cl` [compound 146], for which the 50% inhibitory concentration (IC50) on CaV2.2, against NaV1.3 and on NaV1.8 was 2 to 10 µM throughout.

For `COc1cccc(N(C(=O)c2c(C)nc(N3CCCCC3)nc2-c2ccccc2F)C(C)C)c1` [compound 104], the IC50 is more than 10 µM at CaV2.2, 2 to 10 µM at NaV1.3 and more than 10 µM on NaV1.8.

`O=C(c1cnc(N2CCOCC2)nc1-c1ccccc1F)N(Cc1ccncc1)C1CC1` [compound 205]: the IC50 against CaV2.2, at NaV1.3 and against NaV1.8 was more than 10 µM each time.

Consider `COc1ccccc1C1CCN(C(=O)c2cnc(N3CCOCC3)nc2-c2ccccc2F)CC1` [compound 44], for which the IC50 at CaV2.2 is more than 10 µM; on NaV1.3 it was 2 to 10 µM; against NaV1.8 it was 2 to 10 µM.

With `COc1cccc(N(C(=O)c2cnc(N3CCN(C)CC3)nc2-c2ccccc2F)C(C)C)c1` [compound 87], the IC50 at CaV2.2, at NaV1.3 and on NaV1.8 was more than 10 µM throughout.

Consider `O=C(c1cnc(N2CCOCC2)nc1-c1ccccc1F)N(Cc1cnc2ccccc2c1)C1CC1` [compound 99], for which the IC50 against CaV2.2, against NaV1.3 and on NaV1.8 was more than 10 µM in each case.

Regarding `CC(C)N(C(=O)c1cnc(N2CCOCC2)nc1-c1ccccc1F)c1ccc2c(c1)OCCO2` [compound 67], the IC50 at CaV2.2, against NaV1.3 and on NaV1.8 was more than 10 µM each time.

As to `O=C(c1cnc(N2CCOCC2)nc1-c1ccccc1F)N(Cc1cccnc1)C1CC1` [compound 138], the IC50 against CaV2.2, against NaV1.3 and against NaV1.8 was more than 10 µM in each case.

Take `COc1cccc(CN(C(=O)c2cnc(N3CCOCC3)nc2-c2ccccc2F)C2CC2)c1` [compound 56]: the figures for the IC50 at CaV2.2, on NaV1.3 and against NaV1.8 were 2 to 10 µM, more than 10 µM and more than 10 µM, respectively.

In the case of `CN(CCc1ccccc1)C(=O)c1cnc(N2CCOCC2)nc1-c1ccccc1F` [compound 199], the IC50 against CaV2.2, against NaV1.3 and at NaV1.8 was more than 10 µM throughout.

Turning to `COc1cccc(N(C(=O)c2cnc(N3CCCCC3)nc2-c2ccccc2F)C2CCCC2)c1` [compound 42], the figures for the IC50 at CaV2.2, on NaV1.3 and against NaV1.8 were 2 to 10 µM, 2 to 10 µM and more than 10 µM, respectively.

In the case of `CC(C)N(Cc1ccc(C(C)(C)C)cc1)C(=O)c1cnc(N2CCSCC2)nc1-c1ccccc1F` [compound 59], the IC50 was less than 2 µM on CaV2.2, 2 to 10 µM on NaV1.3 and 2 to 10 µM against NaV1.8.

Take `CC(C)N(Cc1ccc(N2CCCC2)cc1)C(=O)c1cnc(N2CCCCC2)nc1-c1ccccc1F` [compound 50]: the IC50 is 2 to 10 µM against CaV2.2, more than 10 µM against NaV1.3 and more than 10 µM against NaV1.8.

On to `CC(C)N(Cc1ccccc1)C(=O)c1cnc(N2CCc3ccccc3C2)nc1-c1ccccc1F` [compound 78], for which the IC50 at CaV2.2 is less than 2 µM; at NaV1.3 it was 2 to 10 µM; on NaV1.8 it was 2 to 10 µM.

For the compound `O=C(NCCOc1ccccc1)c1cnc(N2CCOCC2)nc1-c1ccc(Oc2ccccc2)cc1` [compound 121], the values for the IC50 at CaV2.2, at NaV1.3 and against NaV1.8 were 2 to 10 µM, 2 to 10 µM and more than 10 µM, respectively.

Source of the values: patent US8546414B2, “Ion channel modulators and methods of use” (Vertex Pharmaceuticals Incorporated, priority 2004, dated 2013).
